# Experimental data published in patent US20230053342A1, “IMIDAZOLIDINONE COMPOUND, PREPARATION METHOD THEREFOR AND USE THEREOF” (BETTA PHARMACEUTICALS CO., LTD, priority 2019, published 2023).
# Key:
# human tumor cells MCF-7 = test: Cell proliferation assay (CellTiter Glo), MCF-7; format: cell-based; details: MCF7, MCF-7 cells incubated for 120 h, read-out: IC50(μM) of compound on MCF cell
# Experimental: (§1) Method: The anti-proliferative effects on human tumor cells MCF-7 and HGC27 of certain compounds of the present invention were evaluated by CellTiter Glo assay.
# (§2) Detection method: MCF-7 cells were suspended in DMEM culture medium, the cell concentration of which was adjusted to 25000 cells/mL; HGC27 cells were suspended in RPMI-1640 culture medium, the cell concentration of which was adjusted to 5000 cells/mL. 100 μL of cell suspension was dispensed to a 96-well assay plate and placed in a CO2 incubator overnight. The tested compounds were dissolved in DMSO, and 3-fold derail dilution was performed to obtain 10-point concentrations. the 10-point concentrations of the tested compounds or or negative control was transferred to the well containing 100 μL of culture medium respectively, incubated at 37° C., 5% CO2, the HGC27 cells were incubated for 96 h, MCF-7 cells were incubated for 120 h. Then 100 μL of CellTiter-Glo agent was added to the above-mentioned 96-well assay plate, incubated at room temperature for 10 minutes to allow stable luminescence signal. VICTOR™ X5 instrument was used to record RLU (relative luminescence unit), and then calculate the IC50 values were calculated.
# (§3) Compound inhibition rate(% inh)=100% −(tested compound RLU-blank control RLU)/(negative control RLU-blank control RLU)*100%
# (§4) Blank control: blank culture medium, with no compound or cell;
# (§5) The IC50 (half inhibitory concentration) of the compound was obtained using the following nonlinear fitting formula:
# (§6) Y=minimum inhibition rate+(max inhibition rate-minimum inhibition rate)/(1+10^((Log IC50−X)*slope)); wherein, X: the log value of the concentration of the tested compound; Y: the inhibition rate of the tested compound(% inh).
# human tumor cells HGC27 = test: Cell proliferation assay (CellTiter Glo), HGC27; format: cell-based; details: HGC-27, HGC27 cells incubated for 96 h, read-out: IC50(μM) of ompound on HGC-27cell
# Experimental: as §1, §2, §3, §4, §5, §6
# [1] = Pharmacokinetic test in male SD rats; format: in vivo; details: rat, plasma; for clearance: intravenous injection, 2 mg/kg; for AUC / Cmax: po, gavage, 10 mg/kg
# Experimental: Method: 42 male SD rats, weight: 150-300 g. Divided into 7 groups randomly, with 6 rats in each group. Among the 6 rats in each group, three of them were administrated a single intravenous injection of […] of the example compound, the other three were given intragastric administration of […] of the example compound, blood was collected from the orbital venous plexus at designated time points, plasma was separated, and stored in a −80° C. refrigerator for later use.
# The protein of the resultant plasma was precipitated by acetonitrile, the supernatant was extracted, and mixed with water at the ratio of 1:1, took 10 μL of which for LC-MS/MS detection, and calculated the average was calculated.
# PI3Kα = PI3Kα (Homo sapiens, UniProt P42336); test: Kinase experiment (ADP-Glo, luminescence), PI3Kα; format: biochemical; details: final concentration of ATP 10 μM; read-out: IC50 of compound to PI3K (nM) α
# Experimental: (§7) PI3Kα, PI3Kβ, PI3Kγ kinases undergo enzymatic reactions with their substrates ATP and PIP2:3PS, the amount of the product detected by ADP-Glo agent and luminescence method were used to reflect the enzymatic activities of PI3Kα, PI3Kβ, PI3Kγ (the final concentration of ATP is 10 μM). The above methods were used to test the inhibitory activity of certain compound of the present invention on PI3Kα, PI3Kβ and PI3Kγ kinase.
# (§8) Agent: Basic kinase buffer (pH 7.5); PI3Kα, PI3Kβ, PI3Kγ kinase solutions; PIP2:3PS and ATP solutions; ADP-Glo kit (containing 10 mM MgCl2).
# (§9) Wherein, the buffer composition: 50 mM Hepes (pH 7.2-7.5), 3 mM MgCl2, 1 mM EGTA, 0.03% CHAPS, 100 mM NaCl, 2 mM DTT; • Compound preparation: The tested compound was diluted to a specific concentration with 100% DMSO. • Process: 1) PI3Kα, PI3Kβ, or PI3Kγ protein solution were dispensed to a 384-well assay plate (6008280, PerkinElmer), and centrifuged at 1000 rpm for 1 minute. • 2) Tested compound, negative control DMSO or positive control BYL719 was dispensed to the above-mentioned 384-well assay plate with the kinase, centrifuged at 1000 rpm for 1 min, and incubated at 25° C. for 15 mins. • 3) PIP2:3PS&ATP solution was added to the above-mentioned 384-well assay plate, centrifuged at 1000 rpm for 1 min, incubated at 25° C. for 60 mins. • 4) 5 μL of ADP-Glo agent (10 mM MgCl2 contained) was transferred to the 384-well assay plate, centrifuged at 1000 rpm for 1 min, incubated at 25° C. for 40 mins. • 5) 10 μL of Detection agent was transferred to the 384-well assay plate, centrifuged at 1000 rpm for 1 min, incubated at 25° C. for 40 mins. • 6) RLU (Relative luminescence unit) value was measured by Envision multifunctional plate reader. The RLU value was used to characterize the degree of reaction between the enzyme and the substrate, and calculate the IC50 value. • 7) Data analysis:
# (§10) Compound inhibition rate(% inh)=(negative control RLU-tested compound RLU)/(negative control RLU-positive control RLU)*100%
# as §5
# (§11) Y=minimum inhibition rate+(max inhibition rate-minimum inhibition rate)/(1+10^((Log IC50−X)*slope)); wherein, X is the log value of the concentration of the tested compound, Y is the inhibition rate of tested compound(% inh).
# PI3Kβ = PI3Kβ (Homo sapiens, UniProt P42338); test: Kinase experiment (ADP-Glo, luminescence), PI3Kβ; format: biochemical; details: final concentration of ATP 10 μM; read-out: IC50 of compound to PI3K (nM) β
# Experimental: as §7, §8, §9, §10, §5, §11
# PI3Kγ = PI3Kγ (Homo sapiens, UniProt P48736); test: Kinase experiment (ADP-Glo, luminescence), PI3Kγ; format: biochemical; details: final concentration of ATP 10 μM; read-out: IC50 of compound to PI3K (nM) γ
# Experimental: as §7, §8, §9, §10, §5, §11
# Chain of PI3Kβ (P42338 whole entry): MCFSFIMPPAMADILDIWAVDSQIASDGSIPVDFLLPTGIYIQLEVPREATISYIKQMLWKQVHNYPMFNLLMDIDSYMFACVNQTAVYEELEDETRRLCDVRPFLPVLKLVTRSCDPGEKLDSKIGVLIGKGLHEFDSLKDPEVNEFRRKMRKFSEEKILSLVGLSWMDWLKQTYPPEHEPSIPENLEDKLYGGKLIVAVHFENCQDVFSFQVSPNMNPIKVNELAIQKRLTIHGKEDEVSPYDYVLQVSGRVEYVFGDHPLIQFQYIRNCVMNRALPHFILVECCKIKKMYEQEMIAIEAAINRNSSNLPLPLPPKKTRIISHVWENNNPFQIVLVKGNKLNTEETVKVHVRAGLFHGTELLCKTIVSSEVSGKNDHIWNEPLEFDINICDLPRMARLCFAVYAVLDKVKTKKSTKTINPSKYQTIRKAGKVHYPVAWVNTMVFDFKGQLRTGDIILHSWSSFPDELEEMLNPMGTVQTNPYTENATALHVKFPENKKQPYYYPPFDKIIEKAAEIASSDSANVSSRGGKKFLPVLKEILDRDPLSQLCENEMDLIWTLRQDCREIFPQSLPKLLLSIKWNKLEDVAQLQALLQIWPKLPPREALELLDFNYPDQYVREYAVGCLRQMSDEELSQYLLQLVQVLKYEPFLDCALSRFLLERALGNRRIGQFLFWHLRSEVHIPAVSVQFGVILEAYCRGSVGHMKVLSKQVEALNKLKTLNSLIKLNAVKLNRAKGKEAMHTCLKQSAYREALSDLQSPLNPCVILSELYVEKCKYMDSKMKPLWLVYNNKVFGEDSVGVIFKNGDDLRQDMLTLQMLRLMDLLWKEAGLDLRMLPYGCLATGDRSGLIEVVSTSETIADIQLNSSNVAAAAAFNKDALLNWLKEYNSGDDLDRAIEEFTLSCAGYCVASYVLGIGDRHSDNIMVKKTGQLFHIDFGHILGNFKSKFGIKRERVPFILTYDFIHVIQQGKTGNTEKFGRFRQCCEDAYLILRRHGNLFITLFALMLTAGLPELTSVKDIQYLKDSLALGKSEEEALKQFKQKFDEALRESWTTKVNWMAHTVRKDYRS
# Chain of PI3Kβ (P27986 whole entry partner): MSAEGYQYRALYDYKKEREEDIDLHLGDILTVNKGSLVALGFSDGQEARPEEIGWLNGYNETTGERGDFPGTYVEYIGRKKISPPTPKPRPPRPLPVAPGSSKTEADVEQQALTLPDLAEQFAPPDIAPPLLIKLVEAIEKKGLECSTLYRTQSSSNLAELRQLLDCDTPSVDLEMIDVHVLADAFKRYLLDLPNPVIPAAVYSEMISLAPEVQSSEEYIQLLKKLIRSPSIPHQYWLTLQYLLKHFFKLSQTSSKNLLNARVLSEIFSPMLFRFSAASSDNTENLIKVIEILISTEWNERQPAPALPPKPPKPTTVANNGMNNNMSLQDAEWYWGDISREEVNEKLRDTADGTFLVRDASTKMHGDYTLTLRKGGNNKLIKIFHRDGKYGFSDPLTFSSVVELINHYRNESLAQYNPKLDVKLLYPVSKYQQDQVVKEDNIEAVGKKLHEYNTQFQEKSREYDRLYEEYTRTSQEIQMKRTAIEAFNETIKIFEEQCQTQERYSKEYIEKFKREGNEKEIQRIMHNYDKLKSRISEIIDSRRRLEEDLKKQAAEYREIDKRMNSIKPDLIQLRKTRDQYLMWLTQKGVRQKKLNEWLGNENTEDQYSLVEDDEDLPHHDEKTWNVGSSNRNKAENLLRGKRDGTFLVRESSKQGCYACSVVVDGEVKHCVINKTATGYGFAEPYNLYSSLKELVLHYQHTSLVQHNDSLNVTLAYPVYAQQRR
# Chain of PI3Kγ (P48736 whole entry): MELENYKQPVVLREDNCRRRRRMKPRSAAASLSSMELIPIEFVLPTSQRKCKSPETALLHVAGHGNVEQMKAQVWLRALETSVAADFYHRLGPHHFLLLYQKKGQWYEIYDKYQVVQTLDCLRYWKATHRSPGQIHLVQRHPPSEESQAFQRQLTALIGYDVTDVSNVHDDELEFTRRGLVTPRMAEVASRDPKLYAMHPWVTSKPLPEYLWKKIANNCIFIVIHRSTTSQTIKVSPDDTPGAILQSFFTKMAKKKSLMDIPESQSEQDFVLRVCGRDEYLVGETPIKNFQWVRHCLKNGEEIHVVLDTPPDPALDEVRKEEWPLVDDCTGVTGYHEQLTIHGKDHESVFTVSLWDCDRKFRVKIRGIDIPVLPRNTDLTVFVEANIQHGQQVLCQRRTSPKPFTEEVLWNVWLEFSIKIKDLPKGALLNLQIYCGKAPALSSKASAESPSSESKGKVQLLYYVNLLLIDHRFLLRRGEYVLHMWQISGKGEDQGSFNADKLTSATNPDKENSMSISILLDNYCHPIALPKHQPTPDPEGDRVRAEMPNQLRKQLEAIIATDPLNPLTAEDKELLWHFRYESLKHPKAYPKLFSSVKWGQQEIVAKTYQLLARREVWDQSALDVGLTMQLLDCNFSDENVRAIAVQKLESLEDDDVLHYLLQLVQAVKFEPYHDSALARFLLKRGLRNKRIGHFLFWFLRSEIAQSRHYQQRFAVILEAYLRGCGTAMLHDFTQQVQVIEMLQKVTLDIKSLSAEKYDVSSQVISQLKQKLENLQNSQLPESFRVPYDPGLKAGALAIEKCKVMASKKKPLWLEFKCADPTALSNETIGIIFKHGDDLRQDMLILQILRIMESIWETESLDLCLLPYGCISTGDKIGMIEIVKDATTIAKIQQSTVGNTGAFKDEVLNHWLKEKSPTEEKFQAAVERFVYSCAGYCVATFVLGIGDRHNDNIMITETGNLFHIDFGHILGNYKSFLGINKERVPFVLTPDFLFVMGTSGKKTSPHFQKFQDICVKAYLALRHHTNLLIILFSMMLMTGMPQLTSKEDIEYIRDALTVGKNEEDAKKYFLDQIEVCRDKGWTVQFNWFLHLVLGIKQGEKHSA
# Chain of PI3Kα (P42336 whole entry): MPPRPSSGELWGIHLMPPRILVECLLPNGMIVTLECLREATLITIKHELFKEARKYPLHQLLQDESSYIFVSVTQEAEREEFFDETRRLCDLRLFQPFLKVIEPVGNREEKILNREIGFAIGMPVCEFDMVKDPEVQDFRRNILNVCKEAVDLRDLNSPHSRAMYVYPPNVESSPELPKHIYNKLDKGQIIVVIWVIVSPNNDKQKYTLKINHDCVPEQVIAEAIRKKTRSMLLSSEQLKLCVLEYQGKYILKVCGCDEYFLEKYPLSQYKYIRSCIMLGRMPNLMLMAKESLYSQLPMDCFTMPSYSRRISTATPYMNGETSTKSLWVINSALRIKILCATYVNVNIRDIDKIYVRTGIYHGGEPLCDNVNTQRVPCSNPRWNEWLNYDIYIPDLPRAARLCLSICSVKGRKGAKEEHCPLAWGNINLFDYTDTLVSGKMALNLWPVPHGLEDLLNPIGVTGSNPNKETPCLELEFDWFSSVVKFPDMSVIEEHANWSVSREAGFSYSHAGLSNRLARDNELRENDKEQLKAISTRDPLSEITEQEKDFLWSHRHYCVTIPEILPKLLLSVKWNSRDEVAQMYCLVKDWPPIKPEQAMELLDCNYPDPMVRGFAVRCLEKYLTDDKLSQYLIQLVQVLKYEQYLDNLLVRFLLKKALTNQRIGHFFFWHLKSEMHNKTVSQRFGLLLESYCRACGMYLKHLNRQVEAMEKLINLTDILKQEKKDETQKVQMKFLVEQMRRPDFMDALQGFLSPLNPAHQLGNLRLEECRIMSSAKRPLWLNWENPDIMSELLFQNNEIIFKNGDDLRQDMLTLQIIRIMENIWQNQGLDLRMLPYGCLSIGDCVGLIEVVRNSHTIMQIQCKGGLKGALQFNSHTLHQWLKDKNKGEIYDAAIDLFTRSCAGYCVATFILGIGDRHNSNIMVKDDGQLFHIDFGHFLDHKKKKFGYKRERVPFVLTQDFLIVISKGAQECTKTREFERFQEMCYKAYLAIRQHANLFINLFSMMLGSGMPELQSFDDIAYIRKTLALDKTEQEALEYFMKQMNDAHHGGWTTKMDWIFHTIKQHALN
# Chain of PI3Kα (P27986 whole entry partner): as the sequence (P27986 whole entry partner) above
SMILES,IC50 (human tumor cells MCF-7),IC50 (human tumor cells HGC27),clearance [1],AUC [1],Cmax [1],IC50 (PI3Kα),IC50 (PI3Kβ),IC50 (PI3Kγ)
"C[C@@H]1COC(=O)N1c1cn2c(n1)-c1ccc(N3CCC[C@H]3C(N)=O)cc1OCC2 [Control compound 1, (2S)-1-(2-((4R)-4-methyl-2-oxooxazolidin-3-yl)-5,6-dihydrobenzo[f]imidazo[1,2-d] [1,4]oxazepin-9-yl)pyrrolidine-2-carboxamide, reference compound]",0.444 µM,1.58 µM,16.6 mL/min/kg,7880 ng·h/mL,1960 ng/mL,–,–,–
"NC(=O)[C@@H]1CCCN1c1ccc2c(c1)OCCn1cc(N3C(=O)CC[C@@H]3CO)nc1-2 [Control compound 2, (2S)-1-(2-((2R)-2-(hydroxymethyl)-5-oxopyrrolidine-1-yl)-5,6-dihydrobenzo[f]imidazo[1,2-d][1,4]oxazepin-9-yl)pyrrolidine-2-carboxamide, reference compound]",0.549 µM,–,–,–,–,–,–,–
"CC(C)(c1cc(-c2cn3c(n2)-c2ccc(N4CCC[C@H]4C(N)=O)cc2OCC3)ccn1)C(F)(F)F [Control compound 3, (2S)-1-(2-(2-(1,1,1-trifluoro-2-methylpropan-2-yl)pyridn-4-yl)-5,6-dihydrobenzo[f]imidazo[1,2-d][1,4]oxazepin-9-yl)pyrrolidine-2-carboxamide, reference compound]",0.519 µM,2.07 µM,–,–,–,–,–,–
"CC(C)C1C(=O)N(C)C(=O)N1c1cn2c(n1)-c1ccc(N3CCC[C@H]3C(N)=O)cc1OCC2 (stereo partly drawn) [Example 1, (2S)-1-(2-(5-isopropyl-3-methyl-2,4-dioxoimidazolidin-1-yl)-5,6-dihydrobenzo[f]imidazo [1,2-d][1,4]oxazepin-9-yl)pyrrolidine-2-carboxamide]",0.176 µM,–,–,–,–,< 5 nM,> 600 nM,> 600 nM
"CC(C)C1C(=O)N(C2CC2)C(=O)N1c1cn2c(n1)-c1ccc(N3CCC[C@H]3C(N)=O)cc1OCC2 (stereo partly drawn) [Example 2, (2S)-1-(2-(3-cyclopropyl-5-isopropyl-2,4-dioxoimidazolidin-1-yl)-5,6-dihydrobenzo[f]imidazo[1,2-d][1,4]oxazepin-9-yl)pyrrolidine-2-carboxamide]",0.07 µM,0.361 µM,1.98 mL/min/kg,53000 ng·h/mL,4340 ng/mL,< 5 nM,> 600 nM,300 to 600 nM
"CC(C)C1C(=O)N(CC(F)(F)F)C(=O)N1c1cn2c(n1)-c1ccc(N3CCC[C@H]3C(N)=O)cc1OCC2 (stereo partly drawn) [Example 3, (2S)-1-(2-(5-isopropyl-2,4-dioxo-3-(2,2,2-trifluoroethyl)imidazolidine-1-yl)-5,6-dihydrobenzo[f]imdazo[1,2-d] [1,4]oxazepin-9-yl)pyrrolidine-2-carboxamide]",–,–,–,–,–,< 5 nM,–,–
"CC(C)C1C(=O)N(c2ccc(F)cc2)C(=O)N1c1cn2c(n1)-c1ccc(N3CCC[C@H]3C(N)=O)cc1OCC2 (stereo partly drawn) [Example 4, (2S)-1-(2-(3-(4-fluorophenyl)-5-isopropyl-2,4-dioxoimidazolidin-1-yl)-5,6-dihydrobenzo[f]imidazo [1,2-d][1,4]oxazepin-9-yl)pyrrolidine-2-carboxamide]",–,–,4.75 mL/min/kg,29100 ng·h/mL,2690 ng/mL,5 to 20 nM,> 600 nM,> 600 nM
"CN1C(=O)C(C2CC2)N(c2cn3c(n2)-c2ccc(N4CCC[C@H]4C(N)=O)cc2OCC3)C1=O (stereo partly drawn) [Example 5, (2S)-1-(2-(5-cyclopropyl-3-methyl-2,4-dioxoimidazolidin-1-yl)-5,6-dihydrobenzo[f]imidazo [1,2-d] [1,4]oxazepin-9-yl) pyrrolidine-2-carboxamide]",0.373 µM,4.07 µM,–,–,–,5 to 20 nM,–,–
"CC(C)C1C(=O)N(C2CCC2)C(=O)N1c1cn2c(n1)-c1ccc(N3CCC[C@H]3C(N)=O)cc1OCC2 (stereo partly drawn) [Example 6, (2S)-1-(2-(3-cyclobutyl-5-isopropyl-2,4-dioxoimidazolidin-1-yl)-5,6-dihydrobenzo[f]imidazo [1,2-d] [1,4]oxazepin-9-yl)pyrrolidine-2-carboxamide]",–,–,–,–,–,5 to 20 nM,–,–
"CCN1C(=O)C(C(C)C)N(c2cn3c(n2)-c2ccc(N4CCC[C@H]4C(N)=O)cc2OCC3)C1=O (stereo partly drawn) [Example 7, (2S)-1-(2-(3-ethyl-5-isopropyl-2,4-dioxoimidazolidin-1-yl)-5,6-dihydrobenzo[f]imidazo [1,2-d] [1,4]oxazepin-9-yl) pyrrolidine-2-carboxamide]",–,–,–,–,–,5 to 20 nM,–,–
"CC(C)C1C(=O)N(c2ccccc2)C(=O)N1c1cn2c(n1)-c1ccc(N3CCC[C@H]3C(N)=O)cc1OCC2 (stereo partly drawn) [Example 9, (2S)-1-(2-(5-isopropyl-2,4-dioxo-3-phenylimidazolidine-1-yl)-5,6-dihydrobenzo[f]imidazo[1,2-d] [1,4]oxazepin-9-yl)pyrrolidine-2-carboxamide]",0.142 µM,–,–,–,–,5 to 20 nM,–,–
"CC(C)C1C(=O)N(C(C)C)C(=O)N1c1cn2c(n1)-c1ccc(N3CCC[C@H]3C(N)=O)cc1OCC2 (stereo partly drawn) [Example 23, (2S)-1-(2-(3,5-diisopropyl-2,4-dioxoimidazolidin-1-yl)-5,6-dihydrobenzo[f]imidazo[1,2-d] [1,4]oxazepin-9-yl)pyrrolidine-2-carboxamide]",0.074 µM,–,8.76 mL/min/kg,18600 ng·h/mL,1830 ng/mL,< 5 nM,–,–
"CN1C(=O)CN(c2cn3c(n2)-c2ccc(N4CCC[C@H]4C(N)=O)cc2OCC3)C1=O [Example 28, (2S)-1-(2-(3-methyl-2,4-dioxoimidazolidin-1-yl)-5,6-dihydrobenzo[f]imidazo[1,2-d] [1,4]oxazepin-9-yl)pyrrolidine-2-carboxamide]",0.468 µM,3.92 µM,–,–,–,–,–,–
"CC(C)[C@@H]1C(=O)N(C2CC2)C(=O)N1c1cn2c(n1)-c1ccc(N3CCC[C@H]3C(N)=O)cc1OCC2 [Example 32, (2S)-1-(2-((5R)-3-cyclopropyl-5-isopropyl-2,4-dioxoimidazolidin-1-yl)-5,6-dihydrobenzo[f]imidazo[1,2-d] [1,4]oxazepin-9-yl)pyrrolidine-2-carboxamide]",0.107 µM,0.415 µM,1.5 mL/min/kg,66400 ng·h/mL,5030 ng/mL,< 5 nM,300 to 600 nM,300 to 600 nM
